From ChEMBL document CHEMBL3352641, “Discovery of pyrrolo[1,2-b]pyridazine-3-carboxamides as Janus kinase (JAK) inhibitors” (Bioorg Med Chem Lett, 2014) come the findings set out here.

SMILES strings stand for the structures.

Data set [1] is described as follows: Permeability in human Caco2 cells. The class given is ADME, cell-based. The following applies: Caco-2, read-out: permeability. Background: Caco-2 cells form a polarised layer with tight junctions and transporters.
The nature of data set [2]: Protein binding in human serum. The data set is classed as ADME, cell-free. The following applies: read-out: PB (converted).
Data set [3] concerns the target Tyrosine-protein kinase JAK2 (Homo sapiens, UniProt O60674). In words: Inhibition of JAK2 (unknown origin) by caliper assay.
The target in data set [4] is Tyrosine-protein kinase JAK1 (Homo sapiens, UniProt P23458). The data set can be described thus: Inhibition of JAK1 (unknown origin) bycaliper assay.
Data set [5] deals with Blood. The data set can be described thus: Inhibition of IL2-induced IFN-gamma production in human whole blood incubated for 18 hrs by ELISA method. The class given is functional, tissue-based. Background: An ELISA detects its analyte on a solid surface through an enzyme-linked reagent.
Data set [6] is described as follows: Permeability by PAMPA method. The class given is ADME. The settings on record: read-out: permeability. In general terms: The PAMPA barrier holds no transporters, so it reflects passive diffusion.
Data set [7] deals with Non-receptor tyrosine-protein kinase TYK2 (Homo sapiens, UniProt P29597). In words: Inhibition of TYK2 (unknown origin) by caliper assay.
Data set [8] deals with T1, Tyrosine-protein kinase JAK3 (Homo sapiens, UniProt P52333).
T1 sequence (P52333 whole entry): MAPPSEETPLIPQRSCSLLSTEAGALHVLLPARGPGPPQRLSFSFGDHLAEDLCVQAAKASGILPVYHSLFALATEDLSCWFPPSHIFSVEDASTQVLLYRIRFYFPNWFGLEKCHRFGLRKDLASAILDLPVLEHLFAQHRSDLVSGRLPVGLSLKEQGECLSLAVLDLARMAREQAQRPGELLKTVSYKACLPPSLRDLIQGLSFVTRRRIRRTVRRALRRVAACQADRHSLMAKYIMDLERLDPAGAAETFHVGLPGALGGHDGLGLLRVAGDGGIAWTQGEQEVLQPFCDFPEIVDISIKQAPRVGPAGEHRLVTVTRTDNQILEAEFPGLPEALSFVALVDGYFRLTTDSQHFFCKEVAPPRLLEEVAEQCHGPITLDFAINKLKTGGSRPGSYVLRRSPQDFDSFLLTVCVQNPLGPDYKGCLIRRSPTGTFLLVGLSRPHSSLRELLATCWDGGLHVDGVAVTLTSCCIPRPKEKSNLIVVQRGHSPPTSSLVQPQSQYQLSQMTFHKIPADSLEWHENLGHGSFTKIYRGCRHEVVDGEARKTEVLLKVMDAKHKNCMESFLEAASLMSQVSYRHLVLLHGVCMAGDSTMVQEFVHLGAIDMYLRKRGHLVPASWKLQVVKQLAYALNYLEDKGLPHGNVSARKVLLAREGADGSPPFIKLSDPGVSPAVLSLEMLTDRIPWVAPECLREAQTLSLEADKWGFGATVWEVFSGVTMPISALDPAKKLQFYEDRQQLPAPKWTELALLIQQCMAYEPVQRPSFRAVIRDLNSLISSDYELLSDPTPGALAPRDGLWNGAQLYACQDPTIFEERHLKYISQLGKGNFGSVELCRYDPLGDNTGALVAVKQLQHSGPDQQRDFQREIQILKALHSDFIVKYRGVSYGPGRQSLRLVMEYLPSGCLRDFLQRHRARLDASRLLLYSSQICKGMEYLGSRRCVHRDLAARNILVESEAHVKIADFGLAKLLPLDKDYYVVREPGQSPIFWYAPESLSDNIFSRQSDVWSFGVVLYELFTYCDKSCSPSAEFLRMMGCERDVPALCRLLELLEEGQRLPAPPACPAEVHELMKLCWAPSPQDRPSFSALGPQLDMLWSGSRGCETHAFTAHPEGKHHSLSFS
The data set can be described thus: Inhibition of JAK3 (unknown origin) by filter assay.

A short description of data set [9]: (§1) Fraction unbound in human serum. The data set is classed as ADME, cell-free.
In data set [10] the test system is Serum. The data set is described as §1. The data set is classed as ADME, cell-free.

Sequence of Tyrosine-protein kinase JAK1 (P23458 whole entry): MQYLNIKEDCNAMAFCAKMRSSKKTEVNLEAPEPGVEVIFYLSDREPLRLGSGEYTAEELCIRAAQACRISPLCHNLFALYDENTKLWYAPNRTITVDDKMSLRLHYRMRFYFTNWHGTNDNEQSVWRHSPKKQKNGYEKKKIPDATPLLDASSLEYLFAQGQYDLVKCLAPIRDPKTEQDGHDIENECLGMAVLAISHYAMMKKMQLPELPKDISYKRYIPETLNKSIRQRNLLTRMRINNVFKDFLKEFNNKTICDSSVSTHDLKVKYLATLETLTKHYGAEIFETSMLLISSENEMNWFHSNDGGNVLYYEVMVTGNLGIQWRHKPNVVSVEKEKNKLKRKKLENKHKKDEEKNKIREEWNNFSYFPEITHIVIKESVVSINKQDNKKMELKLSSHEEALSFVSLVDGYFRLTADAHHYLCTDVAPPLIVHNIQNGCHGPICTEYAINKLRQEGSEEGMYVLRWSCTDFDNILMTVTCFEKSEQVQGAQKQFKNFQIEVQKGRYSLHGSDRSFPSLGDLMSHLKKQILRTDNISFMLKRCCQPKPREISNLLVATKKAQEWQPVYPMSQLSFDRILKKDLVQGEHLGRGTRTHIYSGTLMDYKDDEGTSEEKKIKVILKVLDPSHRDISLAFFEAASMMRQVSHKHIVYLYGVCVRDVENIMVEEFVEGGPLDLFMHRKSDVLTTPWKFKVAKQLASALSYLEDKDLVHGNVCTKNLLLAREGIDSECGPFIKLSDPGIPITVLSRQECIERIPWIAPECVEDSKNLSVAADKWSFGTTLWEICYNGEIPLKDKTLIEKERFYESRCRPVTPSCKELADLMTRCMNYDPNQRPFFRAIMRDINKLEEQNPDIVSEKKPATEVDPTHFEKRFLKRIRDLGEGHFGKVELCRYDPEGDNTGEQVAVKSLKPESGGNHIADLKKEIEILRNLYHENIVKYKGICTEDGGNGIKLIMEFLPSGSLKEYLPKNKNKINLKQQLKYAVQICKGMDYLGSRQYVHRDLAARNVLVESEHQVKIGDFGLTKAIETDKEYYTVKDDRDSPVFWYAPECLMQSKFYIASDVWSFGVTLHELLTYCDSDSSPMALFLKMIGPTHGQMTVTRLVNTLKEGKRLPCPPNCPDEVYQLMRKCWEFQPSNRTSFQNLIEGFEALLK
Sequence of Tyrosine-protein kinase JAK2 (O60674 whole entry): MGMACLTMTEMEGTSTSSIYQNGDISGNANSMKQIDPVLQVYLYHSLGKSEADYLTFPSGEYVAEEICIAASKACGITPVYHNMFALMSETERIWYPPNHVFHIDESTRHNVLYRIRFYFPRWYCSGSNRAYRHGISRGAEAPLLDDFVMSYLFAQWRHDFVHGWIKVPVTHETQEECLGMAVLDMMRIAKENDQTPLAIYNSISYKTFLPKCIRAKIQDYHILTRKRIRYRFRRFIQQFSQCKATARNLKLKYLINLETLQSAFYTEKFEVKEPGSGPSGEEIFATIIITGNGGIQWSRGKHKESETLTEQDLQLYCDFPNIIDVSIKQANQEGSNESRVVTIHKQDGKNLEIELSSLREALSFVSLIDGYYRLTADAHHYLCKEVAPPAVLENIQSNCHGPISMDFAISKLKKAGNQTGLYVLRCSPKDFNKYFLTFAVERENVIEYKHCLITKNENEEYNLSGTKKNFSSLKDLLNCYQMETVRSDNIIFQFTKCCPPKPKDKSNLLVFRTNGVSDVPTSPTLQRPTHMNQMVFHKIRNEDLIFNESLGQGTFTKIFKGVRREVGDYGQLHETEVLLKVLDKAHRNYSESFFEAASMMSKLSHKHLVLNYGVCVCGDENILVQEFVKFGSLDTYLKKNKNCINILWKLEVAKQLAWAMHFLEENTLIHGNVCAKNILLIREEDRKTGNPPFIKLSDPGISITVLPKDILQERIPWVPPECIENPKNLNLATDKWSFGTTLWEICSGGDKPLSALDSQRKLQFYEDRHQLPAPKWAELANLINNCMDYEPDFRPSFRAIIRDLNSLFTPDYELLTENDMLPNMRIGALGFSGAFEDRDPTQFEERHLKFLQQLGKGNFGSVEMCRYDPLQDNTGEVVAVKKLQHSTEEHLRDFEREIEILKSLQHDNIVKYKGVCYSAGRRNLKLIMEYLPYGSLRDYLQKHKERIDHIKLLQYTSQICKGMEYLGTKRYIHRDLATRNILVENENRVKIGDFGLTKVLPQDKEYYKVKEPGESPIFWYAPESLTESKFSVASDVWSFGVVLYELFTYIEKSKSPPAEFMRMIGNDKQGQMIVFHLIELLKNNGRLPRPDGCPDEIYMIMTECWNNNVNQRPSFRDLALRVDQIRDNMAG
Sequence of Non-receptor tyrosine-protein kinase TYK2 (P29597 whole entry): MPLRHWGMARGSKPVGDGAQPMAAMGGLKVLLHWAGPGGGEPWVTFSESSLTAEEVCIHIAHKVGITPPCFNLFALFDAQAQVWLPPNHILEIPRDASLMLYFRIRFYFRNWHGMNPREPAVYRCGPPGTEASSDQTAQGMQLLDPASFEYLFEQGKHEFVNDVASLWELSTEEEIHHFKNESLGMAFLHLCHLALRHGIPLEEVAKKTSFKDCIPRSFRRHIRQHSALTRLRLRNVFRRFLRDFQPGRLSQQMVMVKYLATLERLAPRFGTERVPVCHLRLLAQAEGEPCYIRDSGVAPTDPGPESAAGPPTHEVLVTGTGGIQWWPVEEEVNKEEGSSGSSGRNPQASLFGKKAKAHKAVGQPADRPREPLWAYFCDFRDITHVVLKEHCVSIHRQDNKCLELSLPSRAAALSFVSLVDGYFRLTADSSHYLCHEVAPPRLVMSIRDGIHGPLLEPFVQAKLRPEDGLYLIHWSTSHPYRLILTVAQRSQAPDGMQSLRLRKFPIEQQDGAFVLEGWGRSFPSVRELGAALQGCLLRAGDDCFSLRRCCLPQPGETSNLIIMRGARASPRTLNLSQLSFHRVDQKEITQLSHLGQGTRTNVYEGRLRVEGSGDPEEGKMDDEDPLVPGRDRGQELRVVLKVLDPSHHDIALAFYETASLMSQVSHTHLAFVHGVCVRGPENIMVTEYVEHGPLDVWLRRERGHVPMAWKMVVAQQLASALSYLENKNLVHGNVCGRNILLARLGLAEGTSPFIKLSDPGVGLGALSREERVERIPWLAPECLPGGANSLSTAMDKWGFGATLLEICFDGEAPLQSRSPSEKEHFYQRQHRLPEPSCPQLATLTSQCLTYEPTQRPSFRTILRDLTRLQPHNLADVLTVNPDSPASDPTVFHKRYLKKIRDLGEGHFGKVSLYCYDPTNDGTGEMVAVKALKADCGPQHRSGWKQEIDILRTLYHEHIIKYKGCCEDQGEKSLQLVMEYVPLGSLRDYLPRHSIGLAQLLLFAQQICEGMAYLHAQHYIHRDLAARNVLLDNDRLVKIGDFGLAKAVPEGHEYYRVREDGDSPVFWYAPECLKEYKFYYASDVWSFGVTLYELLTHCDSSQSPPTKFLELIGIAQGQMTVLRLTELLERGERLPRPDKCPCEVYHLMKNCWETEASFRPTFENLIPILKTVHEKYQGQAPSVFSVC

Take `C[C@@H](Nc1c(C(N)=O)cnn2cccc12)C(C)(C)C`: the Papp came out at 192 nm/s in data set [1] and 862 nm/s in [6]. In data set [2], the fraction unbound was 0.027. In addition, the IC50 (usually the concentration needed to halve the response being measured) in data set [3] came to 0.03 µM; in [4] it was 0.048 µM; in data set [5] it was 0.93 µM; in [7], 0.016 µM; in data set [8] it was 0.008 µM.

On to `CC1(C)CCC[C@H]1Nc1c(C(N)=O)cnn2cccc12`, for which the fraction unbound in data set [2] and in [9] was 0.019 throughout. In addition, the IC50 in data set [3] came out at 0.016 µM; in data set [4], 0.024 µM; in data set [5], 1.2 µM; in [7] it was 0.008 µM; in [8], 0.005 µM.

Take `C[C@H](Nc1c(C(N)=O)cnn2cccc12)C(C)(C)C`: the IC50 in [3] worked out at 0.57 µM; in [4] it was 0.27 µM; in data set [7] it was 0.68 µM; in [8], 0.11 µM.

As to `CC1(C)CCC[C@@H]1Nc1c(C(N)=O)cnn2cccc12`, the IC50 in data set [3] is 0.13 µM; in [4], 0.056 µM; in data set [7] it was 0.13 µM; in [8], 0.066 µM.

With `NC(=O)c1cnn2cccc2c1NC1CCCC1`, the IC50 was 0.25 µM in data set [3], 0.17 µM in data set [4] and 0.15 µM in data set [7].

Regarding `CC1(C)[C@H](Nc2c(C(N)=O)cnn3cccc23)CC[C@@]1(C)N`, the IC50 in [3] was determined as 0.28 µM; in data set [4] it was 0.071 µM; in data set [5], 0.18 µM; in data set [7], 0.052 µM; in data set [8], 0.032 µM. The molecule further registered a fraction unbound in data set [9] of 0.52.

As to `CC1(C)[C@H](Nc2c(C(N)=O)cnn3cccc23)CC[C@]1(C)N`, the IC50 amounted to 0.062 µM in data set [3]; 0.019 µM in data set [4]; 0.21 µM in data set [5]; 0.097 µM in [7]; 0.005 µM in data set [8]. Also, the Fu in [10] is given as 52%.

In the case of `C[C@@]1(F)CCC[C@@H]1Nc1c(C(N)=O)cnn2cccc12`, the IC50 was determined as 0.13 µM in [3], 0.19 µM in [4], 0.4 µM in data set [7] and 0.047 µM in data set [8].

`C[C@@]1(C#N)CCC[C@H]1Nc1c(C(N)=O)cnn2cccc12` (racemic): the IC50 in data set [4] came to 0.061 µM; in data set [7], 0.03 µM; in data set [8], 0.067 µM.

Consider `CC1(C)[C@@H](O)CC[C@H]1Nc1c(C(N)=O)cnn2cccc12` (racemic), for which the IC50 in [3] turned out to be 0.13 µM; in [4] it was 0.062 µM; in [5], 1.2 µM; in data set [7], 0.079 µM; in data set [8] it was 0.016 µM.

With `CC1(C)[C@H](O)CC[C@H]1Nc1c(C(N)=O)cnn2cccc12` (racemic), the IC50 in data set [3] was 0.042 µM; in data set [4], 0.021 µM; in data set [5], 0.38 µM; in [7], 0.022 µM; in [8] it was 0.006 µM. This molecule also gave a fraction unbound in [9] of 0.17.

With `CC1(C)[C@H](Nc2c(C(N)=O)cnn3cccc23)CC[C@]1(C)O` (racemic), the IC50 in data set [3] is 0.1 µM; in [4], 0.067 µM; in [5], 5 µM; in [7], 0.21 µM; in data set [8] it was 0.028 µM.

As for `CC1(C)[C@H](Nc2c(C(N)=O)cnn3cccc23)CC[C@@]1(C)O` (racemic), the IC50 came out at 0.031 µM in data set [3]; 0.026 µM in data set [4]; 0.36 µM in data set [5]; 0.007 µM in data set [7]; 0.003 µM in data set [8]. This molecule also returned a fraction unbound in data set [9] of 0.16.

Take `CC1(C)C[C@@](C)(O)C[C@H]1Nc1c(C(N)=O)cnn2cccc12` (racemic): the IC50 in data set [3] amounted to 0.35 µM; in [4], 0.15 µM; in [5], 3.2 µM; in [7], 0.28 µM; in [8], 0.03 µM.

For `CC1(C)C[C@](C)(O)C[C@H]1Nc1c(C(N)=O)cnn2cccc12` (racemic), the IC50 in [3] was 0.061 µM; in data set [4], 0.05 µM; in data set [5], 1.7 µM; in data set [7], 0.09 µM; in [8], 0.015 µM.

On to `CC1(C)[C@H](N)CC[C@H]1Nc1c(C(N)=O)cnn2cccc12` (racemic), for which the IC50 in data set [3] amounted to 0.17 µM; in data set [4], 0.041 µM; in data set [5] it was 0.25 µM; in [7], 0.11 µM; in data set [8], 0.024 µM.

With `CC1(C)[C@@H](N)CC[C@H]1Nc1c(C(N)=O)cnn2cccc12` (racemic), the IC50 worked out at 0.13 µM in data set [3]; 0.034 µM in data set [4]; 0.26 µM in data set [5]; 0.11 µM in data set [7]; 0.012 µM in [8]. Also, the fraction unbound in data set [9] stood at 0.44.

Regarding `C[C@]1(O)CCC[C@H]1Nc1c(C(N)=O)cnn2cccc12` (racemic), the results for the IC50 in data set [4] and in data set [8] were 0.11 µM and 0.069 µM, respectively.

`C[C@@]1(O)CCC[C@H]1Nc1c(C(N)=O)cnn2cccc12` (racemic): the IC50 worked out at 0.27 µM in data set [4], 5.3 µM in data set [5] and 0.042 µM in data set [8].

Turning to `C[C@]1(CO)CCC[C@H]1Nc1c(C(N)=O)cnn2cccc12` (racemic), the IC50 in data set [3] came to 0.11 µM; in data set [4] it was 0.084 µM; in data set [5] it was 1.5 µM; in data set [7], 0.034 µM; in data set [8], 0.024 µM.

Take `C[C@@]1(CO)CCC[C@H]1Nc1c(C(N)=O)cnn2cccc12` (racemic): the IC50 amounted to 0.38 µM in data set [3], 0.25 µM in data set [4], 0.39 µM in data set [7] and 0.14 µM in [8].

For `C[C@]1(C#N)CCC[C@H]1Nc1c(C(N)=O)cnn2cccc12` (racemic), in data set [9], the fraction unbound stood at 0.27. Moreover, the IC50 in data set [4] was 0.015 µM; in data set [5], 0.25 µM; in data set [7], 0.006 µM; in data set [8], 0.01 µM.

Regarding `C[C@@]1(F)CCC[C@H]1Nc1c(C(N)=O)cnn2cccc12` (racemic), the IC50 in data set [3] turned out to be 0.21 µM; in data set [4], 0.1 µM; in data set [7], 0.11 µM; in data set [8] it was 0.043 µM.
